Usually DC50 stands for the concentration at which degradation of the target reaches its halfway point.

Test [1] deals with c-myc in 22RV-1 cells. As to the kind of experiment: Human c-myc ELISA assay. It counts as cell-based. To be noted: Homo sapiens; for Emax: 22Rv1, 18 h, read-out: Degradation of BRD4: Maximum inhibition (%) c-Myc ELISA in 22RV1 cells; for DC50: 22Rv1, read-out: Degradation of BRD4: DC50 (uM) c-Myc ELISA in 22RV1 cells. The essentials:
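22RV-1 cells treated 18 h with 8-point 1:3 compound dilutions (final top 300 nM or 1 μM, 0.1% DMSO). Cells lysed in RIPA buffer with protease/phosphatase inhibitors, and c-myc protein in cleared lysate quantified by ELISA against a standard curve. DC50 reported for c-myc suppression.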
(In general: ELISA stands for enzyme-linked immunosorbent assay.)

In test [2] the test system is SU-DHL-6 xenografts. Briefly: In vivo SU-DHL-6 xenografts efficacy. Conditions: CB17 SCID mice. The protocol: In vivo SU-DHL-6 Xenografts Efficacy
The 4-5 weeks old male CB17 SCID mice were implanted subcutaneously with 5 million SU-DH-L6 GCB-DLBCL cells (in 200 ul volume of 3:1 matrigel:PBS). After 14 days, mice bearing 180-200 mm^3 tumors were randomized into three groups with ten mice in each group while ensuring identical (±5 mm^3) mean tumor volume in each group. […] Tumor volume was monitored twice per week using calipers and body weights were determined daily during the course of the study.

Test [3] deals with 22RV-1 tumor xenograft. As to the kind of experiment: In vivo 22Rv1 xenografts efficacy. Set-up: species or system mice. Conditions: 14 day; OTX-015 as comparison (FIG. 7). The protocol: Mice were housed in pathogen-free animal facilities at New England Life Sciences (NELS, New Haven, Conn.). All experiments were conducted under an IACUC protocol that was approved by the NELS IACUC committee. Male Nu/Nu mice and CB17 SCID mice were obtained at 4-5 weeks age from Charles River Laboratories and implanted subcutaneously with 5×10^6 22Rv1 cells or 5×10^6 VCaP cells in Matrigel (Corning Life Sciences). After 10-14 days, mice bearing >200 mm^3 tumors were randomized into indicated number of groups with ten mice in each group while ensuring identical (±5 mm^3) mean tumor volume in each group. Dosing was carried out through the indicated route and with the indicated schedule for each drug for up to three weeks, depending on the experiment. Mice were sacrificed eight hours after the final dose. Blood was collected, processed to plasma, and flash frozen for PK analysis. Tissues were harvested and flash frozen for further analysis. All PK analysis was carried out at Drumetix Laboratories (Greensboro, N.C.). 2 out of 10 animals in each study arm were randomly excluded in pharmacodynamic analysis, for greater technical ease of running a 20-well protein gel. For PSA ELISA, only samples with at least 25 uL plasma remaining after PK analysis were utilized using the Cell Signaling PathScan® Total PSA/KLK3 Sandwich ELISA Kit #14119 following the manufacturer's protocol. […]

As to `Cc1ncsc1-c1ccc([C@H](C)NC(=O)[C@@H]2C[C@@H](O)CN2C(=O)[C@@H](NC(=O)c2cc3cc(O[C@H]4C[C@@H](NC(=O)C[C@@H]5N=C(c6ccc(Cl)cc6)c6c(sc(C)c6C)-n6c(C)nnc65)C4)ccc3o2)C(C)(C)C)cc1` [Example 195, (2S,4R)-1-[(2S)-3,3-dimethyl-2-({5-[(1,3cis)-3-{2-[(9S)-7-(4-chlorophenyl)-4,5,13-trimethyl-3-thia-1,8,11,12-tetraazatricyclo[8.3.0.0^2,^6]trideca-2(6),4,7,10,12-pentaen-9-yl]acetamido}cyclobutoxy]-1-benzofuran-2-yl}formamido)butanoyl]-4-hydroxy-N-[(1S)-1-[4-(4-methyl-1,3-thiazol-5-yl)phenyl]ethyl]pyrrolidine-2-carboxamide], in test [1], the Emax turned out to be 100% and the DC50 was less than 0.01 µM. For the same compound, in test [2] (6MPK Q3D iv dosing, n=10 (FIG. 10)), the “in vivo growth of SU-DHL-6 xenografts” value was “tumor regression”.

Take `[2H]C([2H])([2H])C([C@H](NC(=O)c1cc2cc(O[C@H]3C[C@@H](NC(=O)C[C@@H]4N=C(c5ccc(Cl)cc5)c5c(sc(C)c5C)-n5c(C)nnc54)C3)ccc2o1)C(=O)N1C[C@H](O)C[C@H]1C(=O)N[C@@H](C)c1ccc(-c2scnc2C)cc1)(C([2H])([2H])[2H])C([2H])([2H])[2H]` [Example 364, (2S,4R)-1-[(2S)-3,3-bis(^2H3)methyl-2-({5-[(1,3-cis)-3-{2-[(9S)-7-(4-chlorophenyl)-4,5,13-trimethyl-3-thia-1,8,11,12-tetraazatricyclo[8.3.0.0^2,^6]trideca-2(6),4,7,10,12-pentaen-9-yl]acetamido}cyclobutoxy]-1-benzofuran-2-yl}formamido)(4,4,4-^2H3)butanoyl]-4-hydroxy-N-[(1S)-1-[4-(4-methyl-1,3-thiazol-5-yl)phenyl]ethyl]pyrrolidine-2-carboxamide]: in test [1], the Emax is 100% and the DC50 was less than 0.01 µM. Consider `Cc1ncsc1-c1ccc([C@H](C)NC(=O)[C@@H]2C[C@@H](O)CN2C(=O)[C@@H](NC(=O)CN2CCC(O[C@H]3C[C@H](NC(=O)c4ccc5c6ncc(-c7c(C)noc7C)cc6n([C@H](c6ccccc6)C6CCOCC6)c5c4)C3)CC2)C(C)(C)C)cc1` [Example 365, (2S,4R)-1-[(2S)-3,3-dimethyl-2-(2-{4-[(1,3-trans)-3-[3-(dimethyl-1,2-oxazol-4-yl)-5-[(S)-oxan-4-yl(phenyl)methyl]-5H-pyrido[3,2-b]indole-7-amido]cyclobutoxy]piperidin-1-yl}acetamido)butanoyl]-4-hydroxy-N-[(1S)-1-[4-(4-methyl-1,3-thiazol-5-yl)phenyl]ethyl]pyrrolidine-2-carboxamide], for which, in test [1], the Emax is 100% and the DC50 was less than 0.01 µM. For the compound `Cc1ncsc1-c1ccc([C@H](C)NC(=O)[C@@H]2C[C@@H](O)CN2C(=O)[C@@H](NC(=O)CN2CCC(O[C@H]3C[C@H](NC(=O)c4ccc5c6ncc(-c7c(C)noc7C)cc6n([C@@H](c6ccccc6)C6CCOCC6)c5c4)C3)CC2)C(C)(C)C)cc1` [Example 366, (2S,4R)-1-[(2S)-3,3-dimethyl-2-(2-{4-[(1,3-trans)-3-[3-(dimethyl-1,2-oxazol-4-yl)-5-[(R)-oxan-4-yl(phenyl)methyl]-5H-pyrido[3,2-b]indole-7-amido]cyclobutoxy]piperidin-1-yl}acetamido)butanoyl]-4-hydroxy-N-[(1S)-1-[4-(4-methyl-1,3-thiazol-5-yl)phenyl]ethyl]pyrrolidine-2-carboxamide], in test [1], the Emax was 100% and the DC50 was less than 0.01 µM. Take `Cc1ncsc1-c1ccc([C@H](C)NC(=O)[C@@H]2C[C@@H](O)CN2C(=O)[C@@H](NC(=O)CN2CCC(N3C[C@@H]4C[C@H]3CN4C(=O)C[C@@H]3N=C(c4ccc(Cl)cc4)c4c(sc(C)c4C)-n4c(C)nnc43)CC2)C(C)(C)C)cc1` [Example 368, (2S,4R)-1-[(2S)-2-(2-{4-[(1S,4S)-5-{2-[(9S)-7-(4-chlorophenyl)-4,5,13-trimethyl-3-thia-1,8,11,12-tetraazatricyclo[8.3.0.0^2,6]trideca-2(6),4,7,10,12-pentaen-9-yl]acetyl}-2,5-diazabicyclo[2.2.1]heptan-2-yl]piperidin-1-yl}acetamido)-3,3-dimethylbutanoyl]-4-hydroxy-N-[(1S)-1-[4-(4-methyl-1,3-thiazol-5-yl)phenyl]ethyl]pyrrolidine-2-carboxamide]: in test [1], the Emax amounted to 100% and the DC50 was 0.01 to 0.1 µM.

As for `Cc1sc2c(c1C)C(c1ccc(Cl)cc1)=N[C@@H](CC(=O)Nc1ccc(O)cc1)c1nnc(C)n1-2` [OTX015, reference compound], the “in vivo growth of SU-DHL-6 xenografts” value in test [2] (daily po administration of 25MPK (FIG. 10)) is on record as “no effect”.

Take `Cc1sc2c(c1C)C(c1ccc(Cl)cc1)=N[C@@H](CC(=O)Nc1ccc(O)cc1)c1nnc(C)n1-2` [OTX-015, reference compound]: the “tumor response in 22RV-1 mice tumor xenograft model, comparator” value in test [3] is “tumor growth inhibition”.

The values are drawn from patent US11554171B2, “Compounds and methods for the targeted degradation of bromodomain-containing proteins” (Arvinas Operations, Inc., priority 2015, dated 2023).
